# From US20230066011A1, “PYRROLOPYRIMIDINE DERIVATIVE, AND PHARMACEUTICAL COMPOSITION FOR PREVENTING OR TREATING PROTEIN KINASE-RELATED DISEASE COMPRISING SAME AS ACTIVE INGREDIENT” (VORONOI CO., LTD., priority 2019, published 2023)
# Tests used:
# Format in all cases: biochemical
# [1] = target: LRRK2 (G2019S) (Homo sapiens, UniProt Q5S007, G2019S); experiment: LRRK2 G2019S enzyme inhibition, ADP-Glo kinase assay; parameters: purchased SignalChem L10-12GG; details: ATP 25 μM
# Method in brief: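 Purified human LRRK2 G2019S (16 ng) with 25 μM ATP and 0.2 μg substrate, 2 h at 25° C. in Tris-HCl pH 7.4, MgCl2, BSA, DTT buffer; compounds at 12 final concentrations, 50 μM down to 0.000001024 μM. ADP-Glo luminescence versus solvent control gave IC50.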
# [2] = target: LRRK2 (Homo sapiens, UniProt Q5S007); experiment: LRRK2 enzyme inhibition, ADP-Glo kinase assay; parameters: purchased Invitrogen PR8604B; details: ATP 10 μM
# Method in brief: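 Purified human LRRK2 (25 ng) with 10 μM ATP and 0.2 μg substrate in 40 mM Tris-HCl pH 7.4, 20 mM MgCl2, 0.5 mg/mL BSA, 50 μM DTT, 2 h at 25° C. ADP-Glo luminescence; 12-point compound series from 50 μM final; IC50 relative to solvent control.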
# [3] = target: T1, human GST-CLK1 (Homo sapiens, UniProt P49759); experiment: GST-CLK1 enzyme inhibition, ADP-Glo kinase assay; details: ATP 10 μM, GST-CLK1 129-end
# T1 construct: purified human GST-CLK1 (129-end, SignalChem) enzyme; purchased SignalChem
# Method in brief: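 Human GST-CLK1 (129-end, 3 ng) reacted with substrate and 10 μM ATP for 1 h at 25° C in 40 mM Tris-HCl pH 7.4, 20 mM MgCl2, 0.5 mg/mL BSA, 50 μM DTT. ADP-Glo luminescence was normalised to solvent control; IC50 (nM) from 3 data sets.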
# [4] = target: T2, human GST-DYRK1A (Homo sapiens, UniProt Q13627); experiment: GST-DYRK1A enzyme inhibition, ADP-Glo kinase assay; details: ATP 10 μM, GST-DYRK1A full length, read-out: DYRK1 IC50
# T2 construct: purified human GST-DYRK1A (full length, Thermo Scientifics) enzyme; purchased Thermo Scientifics
# Method in brief: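 Full-length human GST-DYRK1A (10 ng) with 10 μM ATP and specific substrate in 40 mM Tris-HCl pH 7.4, 20 mM MgCl2, 0.5 mg/mL BSA, 50 μM DTT, 1 h at 25 °C. ADP formation read by ADP-Glo luminescence relative to solvent control; IC50 from three data sets.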
# Sequence of LRRK2 (G2019S) (Q5S007 970-2527 G2019S limits assumed): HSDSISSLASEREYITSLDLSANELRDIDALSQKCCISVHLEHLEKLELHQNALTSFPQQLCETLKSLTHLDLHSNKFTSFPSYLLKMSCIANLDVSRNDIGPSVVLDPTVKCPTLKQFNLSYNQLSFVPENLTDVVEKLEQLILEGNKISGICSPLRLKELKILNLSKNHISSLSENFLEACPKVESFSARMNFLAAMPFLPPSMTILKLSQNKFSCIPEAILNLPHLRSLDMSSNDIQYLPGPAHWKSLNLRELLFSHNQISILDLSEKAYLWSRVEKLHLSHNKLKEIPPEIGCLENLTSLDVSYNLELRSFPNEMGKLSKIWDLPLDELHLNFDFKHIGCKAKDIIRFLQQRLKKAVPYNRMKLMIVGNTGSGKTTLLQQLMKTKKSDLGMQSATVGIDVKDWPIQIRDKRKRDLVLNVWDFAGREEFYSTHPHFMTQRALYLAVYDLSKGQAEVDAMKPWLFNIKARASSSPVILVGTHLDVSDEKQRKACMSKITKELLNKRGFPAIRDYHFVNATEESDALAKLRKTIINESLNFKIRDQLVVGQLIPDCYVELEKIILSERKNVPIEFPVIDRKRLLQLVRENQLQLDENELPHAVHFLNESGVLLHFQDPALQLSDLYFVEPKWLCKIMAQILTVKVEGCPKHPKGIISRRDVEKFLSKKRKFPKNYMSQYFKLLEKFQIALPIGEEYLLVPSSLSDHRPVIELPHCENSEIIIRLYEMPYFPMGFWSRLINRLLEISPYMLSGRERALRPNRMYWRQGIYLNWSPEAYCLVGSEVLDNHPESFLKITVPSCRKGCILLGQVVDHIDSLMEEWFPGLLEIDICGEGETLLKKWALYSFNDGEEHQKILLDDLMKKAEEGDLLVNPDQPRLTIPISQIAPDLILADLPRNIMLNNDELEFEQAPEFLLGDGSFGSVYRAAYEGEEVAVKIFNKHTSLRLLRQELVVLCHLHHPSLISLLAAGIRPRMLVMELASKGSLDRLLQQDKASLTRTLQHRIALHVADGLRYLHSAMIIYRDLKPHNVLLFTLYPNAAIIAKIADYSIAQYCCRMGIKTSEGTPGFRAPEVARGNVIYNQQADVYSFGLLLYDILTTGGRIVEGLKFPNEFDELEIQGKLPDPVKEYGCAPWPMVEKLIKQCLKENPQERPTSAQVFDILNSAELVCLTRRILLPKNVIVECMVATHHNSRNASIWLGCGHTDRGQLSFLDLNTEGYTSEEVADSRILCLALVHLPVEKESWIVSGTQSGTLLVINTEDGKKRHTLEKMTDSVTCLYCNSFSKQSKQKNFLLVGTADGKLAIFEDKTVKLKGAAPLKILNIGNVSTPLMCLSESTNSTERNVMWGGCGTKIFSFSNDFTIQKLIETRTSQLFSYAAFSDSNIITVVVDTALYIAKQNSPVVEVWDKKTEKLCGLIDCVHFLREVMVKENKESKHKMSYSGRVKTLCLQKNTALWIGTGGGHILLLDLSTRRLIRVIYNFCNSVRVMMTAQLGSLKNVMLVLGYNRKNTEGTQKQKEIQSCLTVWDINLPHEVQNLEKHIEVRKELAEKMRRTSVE
# Sequence of LRRK2 (Q5S007 970-2527 limits assumed): as the sequence (Q5S007 970-2527 G2019S limits assumed) above, with S1050G counted along it
# T1 sequence (P49759 129-484 limits assumed): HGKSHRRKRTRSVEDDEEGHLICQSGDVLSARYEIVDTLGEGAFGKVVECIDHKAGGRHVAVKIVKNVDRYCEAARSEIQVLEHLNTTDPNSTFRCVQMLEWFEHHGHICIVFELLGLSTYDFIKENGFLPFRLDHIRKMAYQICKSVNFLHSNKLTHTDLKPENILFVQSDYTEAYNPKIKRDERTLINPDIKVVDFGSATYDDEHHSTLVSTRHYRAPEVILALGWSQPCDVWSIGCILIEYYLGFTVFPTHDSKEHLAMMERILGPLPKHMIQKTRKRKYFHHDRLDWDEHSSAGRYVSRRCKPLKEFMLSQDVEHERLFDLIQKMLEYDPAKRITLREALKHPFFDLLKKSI
IC50 [1] [nM],IC50 [2] [nM],IC50 [3] [nM],IC50 [4] [nM],Structure (SMILES)
< 100,< 100,301 to 1000,301 to 1000,"CC(C)Nc1nc(Nc2ccc(C(=O)N3CCOCC3)c3c2OCCO3)nc2[nH]cc(C(F)(F)F)c12 [Example 167, (8-((4-(isopropylamino)-5-(trifluoromethyl)-7H-pyrrolo[2,3-d]pyrimidin-2-yl)amino)-2,3-dihydrobenzo[b][1,4]dioxin-5-yl)(morpholino)methanone]"
< 100,< 100,< 100,< 100,"COCCNc1nc(Nc2ccc(C(=O)N3CCOCC3)c3c2OCCO3)nc2[nH]cc(C(F)(F)F)c12 [Example 168, (8-((4-((2-methoxyethyl)amino)-5-(trifluoromethyl)-7H-pyrrolo[2,3-d]pyrimidin-2-yl)amino)-2,3-dihydrobenzo[b][1,4]dioxin-5-yl)(morpholino)methanone]"
< 100,< 100,301 to 1000,301 to 1000,"COCCNc1nc(Nc2ccc(S(C)(=O)=O)cc2OC)nc2[nH]cc(C(F)(F)F)c12 [Example 171, N^2-(2-methoxy-4-(methylsulfonyl)phenyl)-N^4-(2-methoxyethyl)-5-(trifluoromethyl)-7H-pyrrolo[2,3-d]pyrimidine-2,4-diamine]"
< 100,< 100,301 to 1000,301 to 1000,"CC[C@@H](C)Nc1nc(Nc2ccc(C(=O)N3CCOCC3)c3c2OCCO3)nc2[nH]cc(C(F)(F)F)c12 [Example 174, (R)-(8-((4-(sec-butylamino)-5-(trifluoromethyl)-7H-pyrrolo[2,3-d]pyrimidin-2-yl)amino)-2,3-dihydrobenzo[b][1,4]dioxin-5-y)(morpholino)methanone]"
301 to 1000,301 to 1000,301 to 1000,301 to 1000,"COCC(C)(C)Nc1nc(Nc2ccc(S(C)(=O)=O)cc2OC)nc2[nH]cc(C(F)(F)F)c12 [Example 177, N^4-(1-methoxy-2-methylpropan-2-yl)-N^2-(2-methoxy-4-(methylsulfonyl)phenyl)-5-(trifluoromethyl)-7H-pyrrolo[2,3-d]pyrimidine-2,4-diamine]"
< 100,< 100,301 to 1000,301 to 1000,"COCC(C)(C)Nc1nc(Nc2ccc(C(=O)N3CCOCC3)c3c2OCCO3)nc2[nH]cc(C(F)(F)F)c12 [Example 178, (8-((4-((1-methoxy-2-methylpropan-2-yl)amino)-5-(trifluoromethyl)-7H-pyrrolo[2,3-d]pyrimidin-2-yl)amino)-2,3-dihydrobenzo[b][1,4]dioxin-5-yl)(morpholino)methanone]"
101 to 300,< 100,301 to 1000,301 to 1000,"COc1cc(S(=O)(=O)N2CCC(N3CCOCC3)CC2)ccc1Nc1nc(NCC(C)C)c2c(C(F)(F)F)c[nH]c2n1 [Example 179, N^4-isobutyl-N^2-(2-methoxy-4-((4-morpholinopiperidin-1-yl)sulfonyl)phenyl)-5-(trifluoromethyl)-7H-pyrrolo[2,3-d]pyrimidine-2,4-diamine]"
101 to 300,101 to 300,301 to 1000,301 to 1000,"CCCNc1nc(Nc2ccc(S(C)(=O)=O)cc2OC)nc2[nH]cc(C(F)(F)F)c12 [Example 181, N^2-(2-methoxy-4-(methylsulfonyl)phenyl)-N^4-propyl-5-(trifluoromethyl)-7H-pyrrolo[2,3-d]pyrimidine-2,4-diamine]"
< 100,< 100,301 to 1000,301 to 1000,"O=C(c1ccc(Nc2nc(NC3CC3)c3c(C(F)(F)F)c[nH]c3n2)c2c1OCCO2)N1CCOCC1 [Example 182, (8-((4-(cyclopropylamino)-5-(trifluoromethyl)-7H-pyrrolo[2,3-d]pyrimidin-2-yl)amino)-2,3-dihydrobenzo[b][1,4]dioxin-5-yl)(morpholino)methanone]"
101 to 300,< 100,101 to 300,301 to 1000,"COc1cc(S(C)(=O)=O)ccc1Nc1nc(NC2CCC2)c2c(C(F)(F)F)c[nH]c2n1 [Example 184, N^4-cyclobutyl-N^2-(2-methoxy-4-(methylsulfonyl)phenyl)-5-(trifluoromethyl)-7H-pyrrolo[2,3-d]pyrimidine-2,4-diamine]"
101 to 300,< 100,101 to 300,301 to 1000,"O=C(c1ccc(Nc2nc(NC3CCC3)c3c(C(F)(F)F)c[nH]c3n2)c2c1OCCO2)N1CCOCC1 [Example 185, (8-((4-(cyclobutylamino)-5-(trifluoromethyl)-7H-pyrrolo[2,3-d]pyrimidin-2-yl)amino)-2,3-dihydrobenzo[b][1,4]dioxin-5-yl)(morpholino)methanone]"
301 to 1000,301 to 1000,301 to 1000,301 to 1000,"COCCNc1nc(Nc2ccc(C(=O)N3CCOCC3)c3c2OCCO3)nc2[nH]cc(C(N)=O)c12 [Example 235, 4-((2-methoxyethyl)amino)-2-((8-(morpholine-4-carbonyl)-2,3-dihydrobenzo[b][1,4]dioxin-5-yl)amino)-7H-pyrrolo[2,3-d]pyrimidine-5-carboxamide]"
< 100,< 100,301 to 1000,301 to 1000,"C=CCNc1nc(Nc2ccc(S(=O)(=O)N3CCOCC3)cc2OC)nc2[nH]ccc12 [Example 246, N4-allyl-N2-(2-methoxy-4-(morpholinosulfonyl)phenyl)-7H-pyrrolo[2,3-d]pyrimidine-2,4-diamine]"
< 100,< 100,301 to 1000,301 to 1000,"C=CCNc1nc(Nc2ccc(S(=O)(=O)N3CCC(N4CCOCC4)CC3)cc2OC)nc2[nH]ccc12 [Example 247, N4-allyl-N2-(2-methoxy-4-((4-morpholinopiperidin-1-yl)sulfonyl)phenyl)-7H-pyrrolo[2,3-d]pyrimidine-2,4-diamine]"
< 100,< 100,301 to 1000,301 to 1000,"N#Cc1c[nH]c2nc(Nc3ccc(C(=O)N4CCC(N5CCOCC5)CC4)c4c3OCCO4)nc(NC3CCCCC3)c12 [Example 251, 4-(cyclohexylamino)-2-((8-(4-morpholinopiperidine-1-carbonyl)-2,3-dihydrobenzo[b][1,4]dioxin-5-yl)amino)-7H-pyrrolo[2,3-d]pyrimidine-5-carbonitrile]"
< 100,< 100,301 to 1000,301 to 1000,"CNc1nc(Nc2ccc(S(C)(=O)=O)cc2OC)nc2[nH]cc(C#N)c12 [Example 257, 2-((2-methoxy-4-(methylsulfonyl)phenyl)amino)-4-(methylamino)-7H-pyrrolo[2,3-d]pyrimidine-5-carbonitrile]"
< 100,< 100,< 100,101 to 300,"N#Cc1c[nH]c2nc(Nc3ccc(C(=O)N4CCC(N5CCOCC5)CC4)c4c3OCCO4)nc(NC3CCC3)c12 [Example 259, 4-(cyclobutylamino)-2-((8-(4-morpholinopiperidine-1-carbonyl)-2,3-dihydrobenzo[b][1,4]dioxin-5-yl)amino)-7H-pyrrolo[2,3-d]pyrimidine-5-carbonitrile]"
< 100,< 100,< 100,101 to 300,"CCNc1nc(Nc2ccc(C(=O)N3CCC(N4CCOCC4)CC3)c3c2OCCO3)nc2[nH]cc(C(F)(F)F)c12 [Example 363, (8-((4-(ethylamino)-5-(trifluoromethyl)-7H-pyrrolo[2,3-d]pyrimidin-2-yl)amino)-2,3-dihydro-benzo[b][1,4]dioxin-5-yl)(4-morpholino-piperidin-1-yl)methanone]"
< 100,< 100,< 100,< 100,"CCCNc1nc(Nc2ccc(C(=O)N3CCC(N4CCOCC4)CC3)c3c2OCCO3)nc2[nH]cc(C(F)(F)F)c12 [Example 364, (4-morpholino-piperidin-1-yl)(8-((4-(propylamino)-5-(trifluoromethyl)-7H-pyrrolo[2,3-d]pyrimidin-2-yl)amino)-2,3-dihydrobenzo[b] [1,4]dioxin-5-yl)methanone]"
< 100,< 100,< 100,101 to 300,"O=C(c1ccc(Nc2nc(NC3CC3)c3c(C(F)(F)F)c[nH]c3n2)c2c1OCCO2)N1CCC(N2CCOCC2)CC1 [Example 367, (8-((4-(cyclopropyl-amino)-5-(trifluoromethyl)-7H-pyrrolo[2,3-d]pyrimidin-2-yl)amino)-2,3-dihydrobenzo[b] [1,4]dioxin-5-yl)(4-morpho-linopiperidin-1-yl)methanone]"
